# Activity calls are given as the source filed them.
# Key:
# [1] = Luminescence Cell-Based Dose Retest to Confirm Inhibitors of Cancer Stem Cells. [Related pubchem assays (depositor defined):AID2717, AID2721]; format: functional; details: Homo sapiens
# [2] = molecular target: T1, Microphthalmia-associated transcription factor (Homo sapiens, UniProt O75030); experiment: TRPM1 promoter luciferase signal decrease, dose response, MITF inhibitor project, cell-based, SK-MEL-5, cherry-picked, set 3 (AID 493073); format: functional
# T1 sequence (O75030 whole entry): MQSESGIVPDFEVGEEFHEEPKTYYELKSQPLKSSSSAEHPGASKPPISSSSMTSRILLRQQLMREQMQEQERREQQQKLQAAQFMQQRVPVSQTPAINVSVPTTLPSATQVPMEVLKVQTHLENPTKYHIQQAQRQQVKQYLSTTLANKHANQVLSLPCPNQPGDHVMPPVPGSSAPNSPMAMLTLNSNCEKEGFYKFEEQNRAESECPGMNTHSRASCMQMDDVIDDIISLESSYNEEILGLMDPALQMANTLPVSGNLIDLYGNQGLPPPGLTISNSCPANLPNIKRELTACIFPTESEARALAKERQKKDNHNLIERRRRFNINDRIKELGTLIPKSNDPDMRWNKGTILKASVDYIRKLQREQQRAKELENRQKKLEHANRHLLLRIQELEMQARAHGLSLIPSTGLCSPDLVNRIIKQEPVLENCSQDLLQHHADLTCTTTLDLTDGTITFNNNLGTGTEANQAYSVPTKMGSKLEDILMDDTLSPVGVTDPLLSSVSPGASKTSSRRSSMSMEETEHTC
# [3] = molecular target: Neurotensin receptor type 1 (Homo sapiens, UniProt P30989); format: functional;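 further: Image-based confirmatory dose-response assay measuring agonist activity at NTR1; NTR1-expressing U2OS osteosarcoma cells imaged for beta-arrestin GFP spot formation; agonist potency where compounds increase beta-arrestin recruitment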
# [4] = molecular target: Acyl-homoserine lactone acylase PvdQ (Pseudomonas aeruginosa (strain LESB58), UniProt Q9I194); experiment: P. aeruginosa PvdQ acylase inhibitors, dose response, biochemical, fluorescence, plate reader and imaging, cherry-picks (AID 493231)
# Large T antigen = Large T antigen (Simian virus 40, UniProt P03070); format: functional, Betapolyomavirus macacae;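 further: Confirmatory-stage PubChem screen for compounds that inhibit SV40 T antigen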
# Cytochrome P450 2C9 = Cytochrome P450 2C9 (Homo sapiens, UniProt P11712); details: Potency
# Cytochrome P450 2C19 = Cytochrome P450 2C19 (Homo sapiens, UniProt P33261); experiment: qHTS Assay for Inhibitors and Substrates of Cytochrome P450 2C19. [Related pubchem assays: 410 ]; format: ADME; details: read-out: Potency
# Aspartyl aminopeptidase = molecular target: T2, Aspartyl aminopeptidase (Plasmodium falciparum 3D7, UniProt Q8I2J3)
# T2 sequence (Q8I2J3 whole entry): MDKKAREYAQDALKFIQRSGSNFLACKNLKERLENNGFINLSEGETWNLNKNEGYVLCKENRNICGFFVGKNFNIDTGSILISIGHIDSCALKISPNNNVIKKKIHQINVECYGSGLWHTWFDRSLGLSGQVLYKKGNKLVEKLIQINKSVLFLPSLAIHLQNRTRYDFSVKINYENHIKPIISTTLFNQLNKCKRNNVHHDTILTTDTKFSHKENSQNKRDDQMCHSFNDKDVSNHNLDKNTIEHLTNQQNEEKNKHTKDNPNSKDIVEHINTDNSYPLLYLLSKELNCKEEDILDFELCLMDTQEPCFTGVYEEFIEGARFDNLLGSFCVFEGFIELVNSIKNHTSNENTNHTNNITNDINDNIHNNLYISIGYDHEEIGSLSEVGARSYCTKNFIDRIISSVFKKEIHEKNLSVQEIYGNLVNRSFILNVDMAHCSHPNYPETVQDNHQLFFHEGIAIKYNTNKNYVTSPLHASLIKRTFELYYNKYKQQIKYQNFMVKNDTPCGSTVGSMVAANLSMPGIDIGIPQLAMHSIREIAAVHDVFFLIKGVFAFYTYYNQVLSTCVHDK
# Procathepsin L = Procathepsin L (Homo sapiens, UniProt P07711)
# [5] = molecular target: Melanin-concentrating hormone receptor 1 (Homo sapiens, UniProt Q99705); experiment: Fluorescence-based counterscreen for antagonists of the G-protein coupled receptor 7 (GPR7): cell-based high throughput dose response assay to identify antagonists of the melanin-concentrating hormone receptor 1 (MCHR1).; format: functional
# [6] = molecular target: T3, Short transient receptor potential channel 4 (Mus musculus, UniProt Q9QUQ5); experiment: mouse TRPC4 channel inhibitors, dose response, cell-based, HEK293 TRPC4/mu-opioid, Fluo-4 calcium (AID 434942); format: functional;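 further: potency of inhibitors blocking the TRPC4 calcium response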
# T3 sequence (Q9QUQ5 whole entry): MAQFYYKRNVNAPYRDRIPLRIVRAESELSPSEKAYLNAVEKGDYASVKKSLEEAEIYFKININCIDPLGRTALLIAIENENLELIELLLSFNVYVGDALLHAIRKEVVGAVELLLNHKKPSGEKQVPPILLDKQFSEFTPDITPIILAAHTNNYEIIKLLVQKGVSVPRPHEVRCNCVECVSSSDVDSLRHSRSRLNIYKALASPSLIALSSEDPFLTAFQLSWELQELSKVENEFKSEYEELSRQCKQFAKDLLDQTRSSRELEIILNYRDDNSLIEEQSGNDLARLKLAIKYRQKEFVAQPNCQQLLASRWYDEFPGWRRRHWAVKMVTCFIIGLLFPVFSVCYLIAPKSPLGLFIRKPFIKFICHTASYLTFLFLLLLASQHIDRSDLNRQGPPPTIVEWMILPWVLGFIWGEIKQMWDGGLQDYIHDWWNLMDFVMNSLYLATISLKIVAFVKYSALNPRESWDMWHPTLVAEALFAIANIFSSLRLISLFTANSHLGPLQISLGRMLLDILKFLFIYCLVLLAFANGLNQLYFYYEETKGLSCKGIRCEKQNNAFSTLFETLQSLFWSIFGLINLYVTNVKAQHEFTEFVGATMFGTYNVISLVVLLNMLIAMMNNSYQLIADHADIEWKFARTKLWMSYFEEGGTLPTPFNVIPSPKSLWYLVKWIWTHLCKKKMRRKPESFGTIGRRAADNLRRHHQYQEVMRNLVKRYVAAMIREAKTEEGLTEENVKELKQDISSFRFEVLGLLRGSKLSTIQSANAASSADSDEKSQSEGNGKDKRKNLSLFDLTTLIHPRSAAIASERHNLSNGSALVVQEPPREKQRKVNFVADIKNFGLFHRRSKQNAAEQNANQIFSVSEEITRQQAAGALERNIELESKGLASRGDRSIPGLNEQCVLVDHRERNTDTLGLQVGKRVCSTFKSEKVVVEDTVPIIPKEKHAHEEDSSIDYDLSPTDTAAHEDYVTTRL
# [7] = molecular target: T4, Low molecular weight phosphotyrosine protein phosphatase (Homo sapiens, UniProt P24666); format: functional; details: read-out: IC50_Mean;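 further: Dose-response confirmation assay measuring inhibition of LMPTP enzyme activity by fluorescence intensity read-out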
# T4 sequence (P24666 whole entry): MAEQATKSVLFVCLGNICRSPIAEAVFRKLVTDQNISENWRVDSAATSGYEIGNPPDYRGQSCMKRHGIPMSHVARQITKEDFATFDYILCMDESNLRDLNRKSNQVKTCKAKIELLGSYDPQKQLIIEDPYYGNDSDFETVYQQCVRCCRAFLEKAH
# Hexokinase = Hexokinase (Trypanosoma brucei, UniProt Q38C41); experiment: Confirmation assay for inhibitors of Trypanosoma brucei hexokinase 1-Analogue-first series. [Related pubchem assays (depositor defined):AID1430, AID1632, AID2516, AID2560, AID2579, AID2600, AID449725, AID492951]; format: functional
# [8] = molecular target: T5, Replicative DNA helicase DnaB (Mycobacterium tuberculosis, UniProt P9WMR3); experiment: DnaB intein splicing inhibitors, dose response, biochemical, cell-free fluorescence (AID 449749); format: functional
# T5 sequence (P9WMR3 whole entry): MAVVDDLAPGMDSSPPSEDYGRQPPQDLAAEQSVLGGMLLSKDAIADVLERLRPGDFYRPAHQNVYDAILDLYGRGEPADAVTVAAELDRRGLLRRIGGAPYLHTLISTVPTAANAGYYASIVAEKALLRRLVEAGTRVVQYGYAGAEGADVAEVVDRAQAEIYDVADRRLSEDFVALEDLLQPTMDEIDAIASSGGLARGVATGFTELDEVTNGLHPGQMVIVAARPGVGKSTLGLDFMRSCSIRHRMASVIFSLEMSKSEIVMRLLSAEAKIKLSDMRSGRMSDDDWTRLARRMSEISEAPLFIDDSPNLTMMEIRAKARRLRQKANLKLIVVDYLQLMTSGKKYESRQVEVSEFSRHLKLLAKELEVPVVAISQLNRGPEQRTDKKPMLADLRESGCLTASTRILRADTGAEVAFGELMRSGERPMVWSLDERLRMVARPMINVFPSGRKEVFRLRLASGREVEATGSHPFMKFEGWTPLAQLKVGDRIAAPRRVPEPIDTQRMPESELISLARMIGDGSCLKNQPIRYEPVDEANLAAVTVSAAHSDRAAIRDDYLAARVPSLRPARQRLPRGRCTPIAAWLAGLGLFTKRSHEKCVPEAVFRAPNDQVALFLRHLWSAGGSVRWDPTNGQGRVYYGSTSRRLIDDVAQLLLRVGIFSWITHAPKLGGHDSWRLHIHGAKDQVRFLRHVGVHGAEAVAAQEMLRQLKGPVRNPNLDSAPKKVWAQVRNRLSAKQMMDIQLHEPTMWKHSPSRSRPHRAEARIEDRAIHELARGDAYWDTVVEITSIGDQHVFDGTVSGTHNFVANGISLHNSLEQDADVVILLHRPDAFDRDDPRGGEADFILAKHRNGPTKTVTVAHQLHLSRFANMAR
# HEK293 [9] = experiment: cells; format: functional, cell-based; details: Homo sapiens
# [10] = molecular target: Nucleotide-binding oligomerization domain-containing protein 2 (Homo sapiens, UniProt Q9HC29); experiment: NOD2 signaling inhibitors, cell-based, luminescence, uHTS, HEK293 (AID 1566); format: functional
# HEK293 [11] = experiment: cells; format: functional, cell-based; details: Homo sapiens; remark: listed apart in the source
# HEK293 [12] = experiment: NOD2 signaling inhibitors in MDP-stimulated cells, cell-based, uHTS, luminescence (AID 2001); format: functional; details: Homo sapiens
# Protein RecA = molecular target: T6, Protein RecA (Mycobacterium tuberculosis, UniProt P9WHJ3); experiment: Fluorescence Cell-Free Homogeneous Dose Retest to Identify Inhibitors of RecA-Intein Splicing Activity. [Related pubchem assays (depositor defined):AID2097, AID2223, AID489010, AID492950]; format: functional
# T6 sequence (P9WHJ3 whole entry): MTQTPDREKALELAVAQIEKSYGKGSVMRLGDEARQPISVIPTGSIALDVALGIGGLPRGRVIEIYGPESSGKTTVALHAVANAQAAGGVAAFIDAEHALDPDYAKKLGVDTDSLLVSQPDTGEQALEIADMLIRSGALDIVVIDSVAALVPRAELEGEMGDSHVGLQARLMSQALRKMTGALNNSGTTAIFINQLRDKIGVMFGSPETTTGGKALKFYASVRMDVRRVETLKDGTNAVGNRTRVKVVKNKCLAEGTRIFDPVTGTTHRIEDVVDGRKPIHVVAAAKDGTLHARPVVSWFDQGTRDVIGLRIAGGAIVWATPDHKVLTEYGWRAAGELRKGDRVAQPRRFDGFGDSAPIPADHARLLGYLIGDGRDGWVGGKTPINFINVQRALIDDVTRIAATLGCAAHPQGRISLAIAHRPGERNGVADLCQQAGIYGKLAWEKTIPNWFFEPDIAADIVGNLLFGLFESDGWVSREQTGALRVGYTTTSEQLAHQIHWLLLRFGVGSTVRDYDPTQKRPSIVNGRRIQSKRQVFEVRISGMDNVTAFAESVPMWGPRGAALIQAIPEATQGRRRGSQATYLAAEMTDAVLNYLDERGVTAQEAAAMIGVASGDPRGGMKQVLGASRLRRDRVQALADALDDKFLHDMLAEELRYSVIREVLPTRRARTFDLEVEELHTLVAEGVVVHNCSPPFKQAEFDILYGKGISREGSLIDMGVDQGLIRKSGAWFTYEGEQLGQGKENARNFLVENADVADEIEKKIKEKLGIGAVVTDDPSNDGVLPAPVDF
# HEK293 [13] = experiment: NOD1 signaling inhibitors, primary screen, cell-based, luminescence, uHTS (AID 1578); format: functional; details: Homo sapiens
# HEK293 [14] = experiment: cells; format: functional, cell-based; details: Homo sapiens; remark: listed apart in the source
# [15] = molecular target: Lysosomal acid glucosylceramidase (Homo sapiens, UniProt P04062); experiment: Dose response cell-based high throughput screening assay to identify enhancers of beta-glucosidase activity. [Related pubchem assays: 784 ]; format: functional
# Lysosomal acid glucosylceramidase, sequence (P04062 whole entry): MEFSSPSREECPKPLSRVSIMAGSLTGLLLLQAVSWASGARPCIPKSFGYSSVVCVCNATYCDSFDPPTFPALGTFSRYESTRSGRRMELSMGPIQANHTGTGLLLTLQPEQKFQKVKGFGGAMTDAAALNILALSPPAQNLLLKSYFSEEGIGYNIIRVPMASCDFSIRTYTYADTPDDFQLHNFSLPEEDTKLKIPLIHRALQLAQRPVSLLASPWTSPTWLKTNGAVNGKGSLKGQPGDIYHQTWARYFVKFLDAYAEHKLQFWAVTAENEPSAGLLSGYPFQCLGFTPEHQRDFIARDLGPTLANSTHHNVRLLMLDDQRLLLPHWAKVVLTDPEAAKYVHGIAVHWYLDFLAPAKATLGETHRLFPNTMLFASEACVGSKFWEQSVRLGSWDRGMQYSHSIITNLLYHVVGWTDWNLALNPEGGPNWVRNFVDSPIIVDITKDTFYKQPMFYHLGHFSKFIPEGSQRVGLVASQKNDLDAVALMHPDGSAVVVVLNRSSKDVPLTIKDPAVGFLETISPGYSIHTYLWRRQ
# Melanin-concentrating hormone receptor 1, sequence (Q99705 whole entry): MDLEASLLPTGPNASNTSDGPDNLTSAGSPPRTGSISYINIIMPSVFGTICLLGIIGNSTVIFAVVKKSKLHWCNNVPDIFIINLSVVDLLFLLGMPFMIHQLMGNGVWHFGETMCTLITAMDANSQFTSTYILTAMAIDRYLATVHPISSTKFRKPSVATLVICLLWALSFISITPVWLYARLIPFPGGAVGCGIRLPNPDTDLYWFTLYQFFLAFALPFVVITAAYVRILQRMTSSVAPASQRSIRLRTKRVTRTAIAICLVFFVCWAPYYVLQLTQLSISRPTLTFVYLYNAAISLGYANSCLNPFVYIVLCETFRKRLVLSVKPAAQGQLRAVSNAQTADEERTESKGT
# Hexokinase, sequence (Q38C41 whole entry): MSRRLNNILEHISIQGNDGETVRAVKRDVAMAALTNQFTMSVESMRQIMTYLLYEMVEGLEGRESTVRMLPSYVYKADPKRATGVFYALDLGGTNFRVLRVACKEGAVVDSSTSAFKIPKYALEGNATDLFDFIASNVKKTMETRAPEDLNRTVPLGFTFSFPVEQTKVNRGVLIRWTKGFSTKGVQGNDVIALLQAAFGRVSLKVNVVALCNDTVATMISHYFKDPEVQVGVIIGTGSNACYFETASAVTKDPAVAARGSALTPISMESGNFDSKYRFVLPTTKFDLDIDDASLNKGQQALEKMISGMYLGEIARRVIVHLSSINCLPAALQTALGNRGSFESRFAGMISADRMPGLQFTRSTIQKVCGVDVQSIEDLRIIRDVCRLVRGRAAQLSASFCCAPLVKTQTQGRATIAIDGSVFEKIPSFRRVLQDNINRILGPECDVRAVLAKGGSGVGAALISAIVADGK
# Acyl-homoserine lactone acylase PvdQ, sequence (Q9I194 24-193 limits assumed): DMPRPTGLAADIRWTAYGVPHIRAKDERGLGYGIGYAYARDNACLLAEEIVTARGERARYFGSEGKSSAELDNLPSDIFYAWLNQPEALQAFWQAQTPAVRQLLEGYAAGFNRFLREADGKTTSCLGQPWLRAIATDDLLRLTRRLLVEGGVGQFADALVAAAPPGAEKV
# Acyl-homoserine lactone acylase PvdQ, sequence (Q9I194 217-762 limits assumed): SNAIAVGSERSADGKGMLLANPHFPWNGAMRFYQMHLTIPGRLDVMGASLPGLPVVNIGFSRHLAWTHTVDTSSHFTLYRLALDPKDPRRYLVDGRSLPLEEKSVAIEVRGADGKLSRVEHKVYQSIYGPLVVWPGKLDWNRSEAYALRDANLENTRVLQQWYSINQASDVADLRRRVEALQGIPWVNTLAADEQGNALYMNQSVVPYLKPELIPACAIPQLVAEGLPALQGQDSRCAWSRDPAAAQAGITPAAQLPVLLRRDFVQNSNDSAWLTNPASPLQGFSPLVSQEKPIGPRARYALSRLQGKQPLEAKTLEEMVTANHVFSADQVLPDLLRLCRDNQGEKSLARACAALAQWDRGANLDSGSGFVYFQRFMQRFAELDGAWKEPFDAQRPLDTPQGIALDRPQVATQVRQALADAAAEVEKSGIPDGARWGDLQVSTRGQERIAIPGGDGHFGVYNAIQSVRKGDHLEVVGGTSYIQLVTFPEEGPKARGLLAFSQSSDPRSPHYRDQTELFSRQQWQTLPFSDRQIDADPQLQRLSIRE
# Procathepsin L, sequence (P07711 whole entry): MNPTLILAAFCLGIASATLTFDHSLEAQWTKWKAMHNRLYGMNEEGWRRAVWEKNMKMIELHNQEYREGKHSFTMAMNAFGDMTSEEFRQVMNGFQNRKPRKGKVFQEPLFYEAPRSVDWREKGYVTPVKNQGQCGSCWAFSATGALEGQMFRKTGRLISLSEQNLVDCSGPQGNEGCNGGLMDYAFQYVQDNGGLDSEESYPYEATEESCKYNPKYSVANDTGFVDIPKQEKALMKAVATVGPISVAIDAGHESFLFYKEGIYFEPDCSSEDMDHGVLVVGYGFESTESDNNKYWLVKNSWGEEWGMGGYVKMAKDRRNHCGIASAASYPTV
# Cytochrome P450 2C9, sequence (P11712 whole entry): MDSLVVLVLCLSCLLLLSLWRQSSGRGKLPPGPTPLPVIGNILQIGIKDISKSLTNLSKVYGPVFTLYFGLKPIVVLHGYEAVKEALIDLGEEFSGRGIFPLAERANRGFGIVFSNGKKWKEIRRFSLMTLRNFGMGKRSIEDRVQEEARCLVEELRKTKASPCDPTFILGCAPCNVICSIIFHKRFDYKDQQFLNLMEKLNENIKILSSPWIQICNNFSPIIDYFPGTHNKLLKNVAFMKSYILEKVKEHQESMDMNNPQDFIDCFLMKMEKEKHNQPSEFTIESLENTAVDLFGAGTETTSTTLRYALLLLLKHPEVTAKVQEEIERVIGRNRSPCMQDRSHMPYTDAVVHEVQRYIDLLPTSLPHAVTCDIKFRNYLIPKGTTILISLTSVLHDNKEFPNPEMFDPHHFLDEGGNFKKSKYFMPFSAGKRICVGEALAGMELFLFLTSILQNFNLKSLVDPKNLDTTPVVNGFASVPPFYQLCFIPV
# Neurotensin receptor type 1, sequence (P30989 whole entry): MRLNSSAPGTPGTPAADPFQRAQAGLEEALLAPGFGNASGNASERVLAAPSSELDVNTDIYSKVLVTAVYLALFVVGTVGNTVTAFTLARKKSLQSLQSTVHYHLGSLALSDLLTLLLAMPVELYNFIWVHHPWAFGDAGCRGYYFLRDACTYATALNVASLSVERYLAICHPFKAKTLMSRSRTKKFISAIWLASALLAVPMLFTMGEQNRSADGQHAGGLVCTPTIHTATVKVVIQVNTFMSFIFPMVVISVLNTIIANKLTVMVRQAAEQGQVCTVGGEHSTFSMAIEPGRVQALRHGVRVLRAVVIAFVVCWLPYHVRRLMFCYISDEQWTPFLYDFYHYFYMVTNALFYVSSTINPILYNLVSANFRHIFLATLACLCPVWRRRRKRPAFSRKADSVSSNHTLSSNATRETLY
# Cytochrome P450 2C19, sequence (P33261 whole entry): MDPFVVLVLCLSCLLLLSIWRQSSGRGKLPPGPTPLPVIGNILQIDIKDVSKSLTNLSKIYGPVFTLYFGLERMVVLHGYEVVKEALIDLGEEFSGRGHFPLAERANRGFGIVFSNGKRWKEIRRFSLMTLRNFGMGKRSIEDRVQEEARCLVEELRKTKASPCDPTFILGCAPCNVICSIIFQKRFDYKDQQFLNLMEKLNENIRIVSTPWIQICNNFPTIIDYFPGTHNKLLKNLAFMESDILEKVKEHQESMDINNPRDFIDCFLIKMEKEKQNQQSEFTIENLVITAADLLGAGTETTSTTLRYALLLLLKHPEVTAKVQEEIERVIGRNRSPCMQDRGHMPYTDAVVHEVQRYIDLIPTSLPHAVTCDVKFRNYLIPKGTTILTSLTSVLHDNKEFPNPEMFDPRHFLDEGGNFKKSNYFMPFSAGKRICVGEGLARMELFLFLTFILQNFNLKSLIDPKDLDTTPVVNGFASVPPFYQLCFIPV
# Large T antigen, sequence (P03070 whole entry): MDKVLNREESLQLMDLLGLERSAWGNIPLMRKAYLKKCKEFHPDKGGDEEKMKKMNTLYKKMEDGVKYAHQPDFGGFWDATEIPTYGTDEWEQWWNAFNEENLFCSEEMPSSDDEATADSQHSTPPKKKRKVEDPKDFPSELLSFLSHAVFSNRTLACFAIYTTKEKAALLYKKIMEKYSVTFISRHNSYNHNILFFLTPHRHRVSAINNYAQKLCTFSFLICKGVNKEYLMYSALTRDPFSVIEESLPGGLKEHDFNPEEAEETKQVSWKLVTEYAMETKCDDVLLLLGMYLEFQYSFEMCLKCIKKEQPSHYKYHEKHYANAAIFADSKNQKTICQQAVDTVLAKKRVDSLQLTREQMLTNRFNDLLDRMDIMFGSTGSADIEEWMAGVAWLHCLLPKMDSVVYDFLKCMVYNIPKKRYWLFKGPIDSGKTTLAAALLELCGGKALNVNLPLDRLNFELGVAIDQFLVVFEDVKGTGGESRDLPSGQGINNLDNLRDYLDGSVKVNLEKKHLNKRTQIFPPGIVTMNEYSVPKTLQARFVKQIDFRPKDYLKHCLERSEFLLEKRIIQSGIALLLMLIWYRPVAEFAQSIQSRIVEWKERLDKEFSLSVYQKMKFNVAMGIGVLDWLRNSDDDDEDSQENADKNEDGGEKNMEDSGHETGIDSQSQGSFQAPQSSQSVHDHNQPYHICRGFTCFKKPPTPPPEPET
smiles,measurement,setting,value
O=C(/C=C\c1ccccc1)NCC(=O)N/N=C/c1ccc(O)cc1O,AC50,[1],11.1 µM (active)
same,AC50,[2],7.99 µM (active)
same,EC50,[3],23.1 µM (inactive)
COc1ccc(-c2ccc(OC(=O)NC3CCS(=O)(=O)C3)cc2)cc1 (stereo unspecified),AC50,[4],30.7 µM (active)
same,IC50,Large T antigen,9.45 µM (active)
C=C(C)C(O)/C=C/c1ccc(OC)cc1 (stereo unspecified),AC50,Cytochrome P450 2C9,2.51 µM (inconclusive)
same,AC50,Cytochrome P450 2C19,0.501 µM (inconclusive)
O=C(CSc1nnc[nH]1)Nc1nc(-c2ccccc2)ns1,IC50,Aspartyl aminopeptidase,0.442 µM (active)
same,IC50,Procathepsin L,> 59.6 µM (not active)
Cc1cc(C(=O)N2CCC(Cc3ccccc3)CC2)ccc1[N+](=O)[O-],IC50,[5],16.6 µM (not active)
CC(C)Cc1nc(N2CCOCC2)c(C#N)c2c1CCC2,EC50,[6],6.68 µM (active)
CC(C)Oc1ccc(CC2CCC(=O)N(C)C2=O)cc1 (stereo unspecified),AC50,[4],26.2 µM (active)
COc1ccc(-c2csc(N3CCN(c4cc(C)nc5ccccc45)CC3)n2)cc1OC,EC50,[3],21.4 µM (inactive)
same,IC50,[7],11.8 µM (active)
CCOc1ccc(Br)cc1/C=N/O,EC50,[6],5.96 µM (active)
O=C(Nc1cc(Cl)ccc1C(=O)O)c1ccccc1,IC50,Hexokinase,> 25 µM (inactive)
O=C(CCl)Nc1c2c(nn1-c1ccccc1)CSC2,AC50,[8],60.5 µM (active)
same,IC50,HEK293 [9],8.63 µM (active)
same,EC50,[10],> 20 µM (inactive)
same,IC50,HEK293 [11],> 20 µM (inactive)
same,IC50,HEK293 [12],15.1 µM (inactive)
same,EC50,Protein RecA,11.4 µM (active)
same,EC50,HEK293 [13],3.07 µM (active)
same,IC50,HEK293 [14],> 20 µM (inactive)
O=c1c2cc(F)ccc2sn1-c1ccc(Cl)cc1,IC50,Hexokinase,3.01 µM (active)
CCOC(c1cc(OC)cc([N+](=O)[O-])c1OC)C(C)C(OC)[C@@H](C)/C=C/CC(=O)OC (stereo partly specified),AC50,Cytochrome P450 2C9,2.51 µM (inconclusive)
CCOc1ccccc1C1C(C(=O)Nc2ccccc2OC)=C(C)Nc2nnnn21 (stereo unspecified),EC50,[15],> 10 µM (not active)
COC(=O)CN1CCN(C(=O)c2ccc(F)cc2)c2ccccc2C1,EC50,[15],> 50 µM (not active)
COc1ccccc1C1CC(c2ccc(Cl)cc2)N=C2N=CNN21 (stereo unspecified),IC50,[5],24.5 µM (not active)
O=C(CSc1nn(-c2ccccc2)c(=S)s1)Nn1cnnc1,IC50,Aspartyl aminopeptidase,1.61 µM (active)
same,IC50,Procathepsin L,> 59.6 µM (not active)
